SMILES strings stand for the structures.

The subject of assay [1] is Plants expressing the dioxygenase encoded by the tfdA gene. Briefly: Herbicide tolerance of plants expressing the tfdA dioxygenase. The class given is in vivo. The following applies: found by applicant. The text has this: See, e.g., Llewellyn and Last, in Herbicide-Resistant Crops Chapter 10, pages 159-174 (Duke, ed., CRC Lewis Publishers 1996). Preferably, additional bacterial codons of the tfdA coding sequence are replaced by plant-preferred codons to obtain better expression of the encoded dioxygenase. […] See, e.g., Llewellyn and Last, in Herbicide-Resistant Crops Chapter 10, pages 159-174 (Duke, ed., CRC Lewis Publishers 1996) and U.S. Pat. Nos. 6,100,446 and 6,153,401.

In assay [2] the test system is tomato genotype UC82L (control). Nature of the assay: Fruit yield assay, 2,4-D sprayed on non-transgenic tomato. Conditions: for Total Yield (Fresh Fruit Yield) / Fruit Weight (Average Fresh Fruit Weight) / Total Flowers / Fruit per Plant / Total Fruit No.: UC82L; for Total Yield (Fresh Fruit Yield): harvested over 60 days; for Fruit Weight (Average Fresh Fruit Weight) / Total Flowers / Fruit per Plant / Total Fruit No.: 60 days; for Total Flowers: Flower Number/plant/replication/treatment; for Fruit per Plant: Fruit Number/plant/replication/treatment; for Total Fruit No.: Total Fruit Number/replication/treatment. The class given is in vivo, Lycopersicon esculentum. The text has this:
The use of exogenously supplied synthetic auxins on agronomic crops to elicit direct non-herbicidal effects was further assessed using genetically-engineered tomato plant lines expressing a synthetic auxin metabolizing gene, and non-genetically-engineered controls. Tomato was utilized to model fruit retention (fruit set) and fruit yield. The transgenic tomato line was utilized in the T2 generation with the transgene fixed in a homozygous fashion. The tomato genotype UC82L was utilized as the control, as well as the background for tranformation with the pPZP211-PNPT-311-SAD2 binary plasmid. This genotype was chosen because it is more likely to closely approximate the behavior of field-grown tomatoes than some short-life-cycle laboratory strains of tomato.
In the same manner as for tobacco, the research was conducted in a single phase entailing characterization of response variables when plants were subjected to the maximum (1× rate=1 pound/acre of active ingredient) and low (¼×=4 ounces/acre of active ingredient) rates of exogenously applied 2,4-D. The overall experimental design was comprised of three parallel completely randomized designs with spray rate and genotype as the main factors. Three replications were performed for each treatment within each experiment. Each replication was the average of three plants that were harvested over a period of 60 days. Fruit number, fruit weight and flower number were measured directly, with average fruit weight and average fruit per plant being derived by dividing fruit weight and fruit number within a replication by the number of plants (3). Tomato fruit yield was measured on fresh fruit and recorded in grams.
Non-transgenic and transgenic seed were germinated and grown as described in Example 1 for tobacco. The transgenic tomato line was utilized in the T2 generation with the transgene fixed in a homozygous fashion.
The plants with 4 fully-extended leaves retained were sprayed as described in Example 1. Each replication (3 plants) was sprayed independently and permitted to dry before being moved back to the greenhouse for further growth for 60 days.
Fruit number, fruit weight, and flower number were measured directly during this 60-day period. Tomato fruit yield was measured on fresh fruit and recorded in grams.

The test system of assay [3] is SAD2 - Cultivar KY 160 genetically engineered to express a modified version of the SAD1 synthetic gene. Briefly: Yield assay, 2,4-D sprayed on transgenic SAD2 tobacco. The class given is in vivo, Nicotiana tabacum. The following applies: for Plant Yield / Percent Leaf Yield / Corrected Leaf Yield / Corrected Plant Yield / Leaf Yield: SAD2 tobacco, isooctyl ester formulation; for Plant Yield / Corrected Leaf Yield / Corrected Plant Yield / Leaf Yield: dry matter 21 days after spraying; for Percent Leaf Yield: 21 days after spraying. As for the experimental part:
The use of exogenously supplied synthetic auxins on agronomic crops to elicit direct non-herbicidal effects, with an emphasis on the potential enhancement of yield, was assessed using genetically-engineered (GE) tobacco plant lines expressing synthetic auxin metabolizing genes. Non-GE controls were used, permitting separation of the herbicidal and biological properties of the exogenously supplied synthetic auxins. Tobacco was utilized to model dry matter yield.
The research was conducted in a single phase entailing characterization of response variables when plants were subjected to maximum (1× rate=1 pound/acre of active ingredient) and low (¼×=4 ounces/acre of active ingredient) rates of exogenously applied 2,4-dichlorophenoxyacetic acid (2,4-D). GE lines of tobacco (dark fired cultivar “KY 160”) expressing a synthetic gene for auxin metabolism (SAD1 or SAD2) were used, along with non-GE lines of the same genotype as control material. Commercial tobacco production has long utilized decapitation (“topping”) to initiate a predictable increase in leaf weight, thickness, and dry matter yield. This yield increase is dependent upon variables, such as genotype and fertility. By utilizing controls of the same genotype and a fixed level of fertility, significant yield variation responses should be attributable to the treatment (exogenous auxin herbicide application).
The overall experimental design was comprised of three parallel completely randomized designs with spray rate and genotype as the main factors. Three replications were performed for each treatment within each experiment. Each replication was the average measurement of six plants. The tobacco lines were allowed to advance to the 6-8 leaf stage. Upon reaching this stage, the primary meristem was removed along with lower leaves so that only 4 leaves remained. Plants were then sprayed with herbicide and permitted to grow for an additional 21 days. At the end of this period, dry matter yields for both leaf and the whole plant were measured.
Yield data recorded for tobacco were leaf dry matter, leaf number, and total dry matter. Corrected plant yield and corrected leaf yield were calculated for each replication as the leaf dry matter divided by leaf number then multiplied by the expected number of leaves (6 plants×4 leaves=24). This corrected leaf yield was then added to stem yield fraction (arrived at by subtracting actual leaf yield from total plant yield) to create a corrected total plant yield. All tobacco yield measurements were recorded in grams after a 7-day drying period in ambient air dryers.
Seed of non-transgenic tobacco lines were germinated on MS03 (MS salts, B5 vitamins, 3% sucrose) medium. Transgenic seeds were germinated on the same medium augmented with 300 mg/L kanamycin monosulfate to allow detection of any seedlings failing to carry the transgene. Thirty days after germination, seedlings were transplanted to the greenhouse into flats holding 8 trays of 6 plants each for a total of 48 plants. Plants were permitted to grow for approximately 45 days, at which time 6-8 leaves had developed. Prior to spraying, the top of the plant retaining the uppermost two leaves was removed (decapitated) resulting in the retention of 4 fully-extended leaves for each plant.
For spray assays and for the yield studies, spraying was performed in an Allen Machine Works Spray Cabinet. Spray rates were established as the equivalent of 16 ounces of active ingredient per acre (1× rate), 4 ounces active ingredient/acre (¼× rate), and the control (no active ingredient per acre or 0×). The herbicide used was 2,4-D, isooctyl ester formulation (3.9 pounds of active ingredient/gallon) at equivalent rates noted above. To achieve this equivalent 1× field rate, 500 microliters of herbicide were diluted into a total volume of 50 ml. The ¼× field rate was achieved by diluting 125 microliters of herbicide in a 50 ml volume. […]

On to `O=C(O)COc1ccc(Cl)cc1Cl` [2,4-D, 2,4-dichlorophenoxyacetic acid], for which the “tolerance of plants to the herbicide” value in assay [1] is “tolerant”. The “Total Yield (Fresh Fruit Yield)” value in assay [2] (spray rate 1X (1 pound active ingredient/acre), 2,4-D isooctyl ester formulation) was 35.3 grams/plant/replication/treatmen. Moreover, in assay [2] (spray rate 1X), the “Fruit Weight (Average Fresh Fruit Weight)” value was 14.1 grams/fruit/plant/replication/treatment, the “Total Flowers” value is 4.3, the “Fruit per Plant” value was 0.6 and the “Total Fruit No.” value is listed as 2.3. Further, the “Total Yield (Fresh Fruit Yield)” value in assay [2] (spray rate ¼X (4 ounces active ingredient/acre), 2,4-D isooctyl ester formulation) is reported as 66.1 grams/plant/replication/treatmen. In assay [2] (spray rate ¼X), the “Fruit Weight (Average Fresh Fruit Weight)” value is given as 26.0 grams/fruit/plant/replication/treatment, the “Total Flowers” value was determined as 6.0, the “Fruit per Plant” value amounted to 0.8 and the “Total Fruit No.” value is on record as 3.0. In addition, in assay [2] (control line, ¼× rate), the “effect on average fruit weight” value is “increase in average fruit weight”. Moreover, in assay [2] (control material, ¼× rate), the “effect on total flower number” value is reported as “reducing the number of flowers”. Moreover, the “Plant Yield” value in assay [3] (2,4-D rate 1X (1 pound active ingredient/acre)) was 48.8 grams/plant/replication/treatment. Also, in assay [3] (2,4-D rate 1X), the “Percent Leaf Yield” value was determined as 42.2%, the “Corrected Leaf Yield” value is given as 21.6 grams/plant/replication/treatment, the “Corrected Plant Yield” value is reported as 51.0 grams/plant/replication/treatment and the “Leaf Yield” value is 19.4 grams/plant/replication/treatment. Also, the “Plant Yield” value in assay [3] (2,4-D rate ¼X (4 ounces active ingredient/acre)) was 43.9 grams/plant/replication/treatment. In addition, in assay [3] (2,4-D rate ¼X), the “Percent Leaf Yield” value is recorded as 42.2%, the “Corrected Leaf Yield” value is 19.1 grams/plant/replication/treatment, the “Corrected Plant Yield” value is on record as 45.2 grams/plant/replication/treatment and the “Leaf Yield” value is reported as 17.8 grams/plant/replication/treatment. The “effect on yield” value in assay [3] (transgenic material (SAD2) sprayed with either the ¼× or 1× rate) is on record as “significant increase in yield”.

Values taken from patent publication US20070225171A1 (priority 2001, published 2007).
